Consider two compounds from patent US6809111B2, “Prodrugs of COX-2 inhibitors” (Pharmacia Corporation, priority 2001, dated 2004).

Data set [1] deals with carrageenan-induced inflammatory response in air pouch. The data set is described as follows: Air-pouch model of inflammation (carrageenan). It counts as in vivo. Particulars: male Lewis rats. As for the experimental part: Male Lewis rats (175-200 g) were used. Air cavities were produced by subcutaneous injection of 20 mL of sterile air into the intrascapular area of the back. An additional 10 mL of air was injected into the cavity every 3 days to keep the space open. Seven days after the initial air injection, 2 mL of a 1% solution of carrageenan (Sigma) dissolved in saline was injected directly into the pouch to produce an inflammatory response. The volume of exudate was measured […]. The differential cell count was determined by Wright-Giemsa staining. PGE2 and 6-keto-PGF1α were determined in the pouch exudates by specific ELISAs (Cayman Chemicals, Ann Arbor, Mich.).

A word on the melting point: it is the temperature of the solid-liquid transition.

Compound `Cc1ccc(-c2cc(C(F)(F)F)nn2-c2ccc(S(=O)(=O)NCCO)cc2)cc1` [Example 3, N-(2-hydroxyethyl)-4-[5-(4-methylphenyl)-3-(trifluoromethyl)-1H1-pyrazol-1-yl]benzenesulfonamide] gave a melting point of 57.8 °C. In addition, the “AIR POUCH TEST % Inhibition @ 20 mg/kg body weight” value in data set [1] was determined as 59%.
For `Cc1ccc(-c2cc(C(F)(F)F)nn2-c2ccc(S(=O)(=O)N(CCO)CCO)cc2)cc1` [Example 4, N,N-bis(2-hydroxyethyl)-4-[5-(4-methylphenyl)-3-(trifluoromethyl)-1H-pyrazol-1-yl]benzenesulfonamide], in that order: 79.1 °C and 10%.
